Measurements taken from patent US20100172916A1, “SUBSTITUTED HYDROXYPHENYLAMINE COMPOUNDS” (AUSPEX PHARMACEUTICALS, INC., priority 2008, published 2010).

Test: In vitro liver microsomal stability assay
Assay type: in vitro ADME
Conditions: 0.5 mg per mL liver microsome protein, NADPH-generating system, 5 microgram per mL test compound, 37° C., 0-30 minutes, LC/MS/MS
Description: Liver microsomal stability assays were conducted at 0.5 mg per mL liver microsome protein with an NADPH-generating system in 2% sodium bicarbonate (2.2 mM NADPH, 25.6 mM glucose 6-phosphate, 6 units per mL glucose 6-phosphate dehydrogenase and 3.3 mM magnesium chloride). Test compounds were prepared as solutions in 20% acetonitrile-water and were added to the assay mixture (final assay concentration 5 microgram per mL) and incubated at 37° C. Final concentration of acetonitrile in the assay should be <1%. Aliquots (50 μL) were taken out at times 0, 7.5, 15, 22.5, and 30 minutes, and diluted with ice cold acetonitrile (200 μL) to stop the reactions. Samples were centrifuged at 12,000 RPM for 10 minutes to precipitate proteins. Supernatants were transferred to microcentrifuge tubes and stored for LC/MS/MS analysis of the degradation half-life of the test compounds.

Structure (SMILES)	degradation half-life as compared to the non-isotopically enriched drug
[2H][C@@H](c1cccc(O)c1)[C@]([2H])(N)C(=O)O [Example 2, d3-2-Amino-3-(3-hydroxy-phenyl)-propionic acid]	decrease in degradation half-life
[2H]C([2H])(c1cccc(O)c1)[C@]([2H])(N)C(=O)O [Example 3, d3-2-Amino-3-(3-hydroxy-phenyl)-propionic acid]	decrease in degradation half-life
